Results taken from patent US11969428B2, “Methods and pharmaceutical compositions for treating lymphoid malignancy” (priority 2011, dated 2024).

Columns and labels:
Experiment in all cases: Ambit KinomeScan screening
Assay type in all cases: binding
Details in all cases: CAL-130 10 μM
[1] = target: T1, ERK2 (Homo sapiens, UniProt P28482)
T1 construct: unspecified tag ("tagged kinases"); purchased Ambit (KinomeScan screening service)
Procedure: (§1) CAL-130 (10 μM) was evaluated for its ability to prevent tagged kinases from interacting with immobilized “bait” ligand (Karaman et al., 2008). Results are reported as “% of control binding”, where lower numbers indicate stronger interactions with the tagged kinase. Values of >35% are considered “no hits”. PI3Kδ had the lowest percentage of control binding at 0.2% followed by PI3Kγ at 3.2% (See Table 1 below). These values indicate a high probability of a potent interaction. 353 kinases were assessed in the screen (Table 2).

[2] = target: T2, CAMK1 (Homo sapiens, UniProt Q14012)
T2 construct: unspecified tag ("tagged kinases"); purchased Ambit (KinomeScan screening)
Procedure: as §1

[3] = target: T3, MKNK2 (Homo sapiens, UniProt Q9HBH9)
T3 construct: unspecified tag ('tagged kinases'); purchased Ambit (KinomeScan screening)
T3 sequence (Q9HBH9 whole entry): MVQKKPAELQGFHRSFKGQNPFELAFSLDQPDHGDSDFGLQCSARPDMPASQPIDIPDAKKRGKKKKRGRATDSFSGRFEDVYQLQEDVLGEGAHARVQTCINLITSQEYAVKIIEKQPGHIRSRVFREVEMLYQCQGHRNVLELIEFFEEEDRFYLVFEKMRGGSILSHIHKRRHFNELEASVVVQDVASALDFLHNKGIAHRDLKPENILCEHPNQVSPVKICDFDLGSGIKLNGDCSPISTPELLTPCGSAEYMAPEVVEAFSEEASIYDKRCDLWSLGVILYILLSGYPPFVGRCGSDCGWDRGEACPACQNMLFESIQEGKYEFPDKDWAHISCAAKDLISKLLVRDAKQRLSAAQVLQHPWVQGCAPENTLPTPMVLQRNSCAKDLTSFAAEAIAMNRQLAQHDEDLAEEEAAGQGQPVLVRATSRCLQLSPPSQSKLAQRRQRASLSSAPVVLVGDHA
Procedure: as §1

[4] = target: T4, TYK2(JH1domain) (Homo sapiens, UniProt P29597)
T4 construct: TYK2(JH1domain); tag, kind not specified; purchased Ambit (KinomeScan screening service)
T4 sequence (P29597 897-1176 limits assumed): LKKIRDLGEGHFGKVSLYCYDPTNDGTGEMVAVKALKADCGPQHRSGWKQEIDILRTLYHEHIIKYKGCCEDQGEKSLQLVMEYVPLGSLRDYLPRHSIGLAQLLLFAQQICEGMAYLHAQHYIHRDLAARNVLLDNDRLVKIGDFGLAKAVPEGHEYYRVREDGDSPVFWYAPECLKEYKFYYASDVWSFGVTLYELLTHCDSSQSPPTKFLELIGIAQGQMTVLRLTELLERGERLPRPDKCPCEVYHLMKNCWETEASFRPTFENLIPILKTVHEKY
Procedure: as §1

[5] = target: T5, YSK1 (Homo sapiens, UniProt O00506)
T5 construct: purchased Ambit (KinomeScan screening service)
T5 sequence (O00506 whole entry): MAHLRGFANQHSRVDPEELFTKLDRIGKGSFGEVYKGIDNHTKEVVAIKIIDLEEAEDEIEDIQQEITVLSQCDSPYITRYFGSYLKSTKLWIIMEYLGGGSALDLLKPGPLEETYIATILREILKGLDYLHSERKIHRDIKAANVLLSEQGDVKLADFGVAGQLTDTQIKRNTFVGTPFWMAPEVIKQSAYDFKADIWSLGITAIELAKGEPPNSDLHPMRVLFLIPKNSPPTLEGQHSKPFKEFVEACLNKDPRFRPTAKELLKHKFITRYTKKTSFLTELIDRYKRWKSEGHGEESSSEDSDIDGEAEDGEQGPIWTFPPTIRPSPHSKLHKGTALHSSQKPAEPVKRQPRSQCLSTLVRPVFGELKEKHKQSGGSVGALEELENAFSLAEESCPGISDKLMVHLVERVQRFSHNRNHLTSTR
Procedure: as §1

[6] = target: T6, MRCKA (Homo sapiens, UniProt Q5VT25)
T6 construct: unspecified tag ('tagged kinases'); purchased Ambit (KinomeScan screening)
T6 sequence (Q5VT25 whole entry): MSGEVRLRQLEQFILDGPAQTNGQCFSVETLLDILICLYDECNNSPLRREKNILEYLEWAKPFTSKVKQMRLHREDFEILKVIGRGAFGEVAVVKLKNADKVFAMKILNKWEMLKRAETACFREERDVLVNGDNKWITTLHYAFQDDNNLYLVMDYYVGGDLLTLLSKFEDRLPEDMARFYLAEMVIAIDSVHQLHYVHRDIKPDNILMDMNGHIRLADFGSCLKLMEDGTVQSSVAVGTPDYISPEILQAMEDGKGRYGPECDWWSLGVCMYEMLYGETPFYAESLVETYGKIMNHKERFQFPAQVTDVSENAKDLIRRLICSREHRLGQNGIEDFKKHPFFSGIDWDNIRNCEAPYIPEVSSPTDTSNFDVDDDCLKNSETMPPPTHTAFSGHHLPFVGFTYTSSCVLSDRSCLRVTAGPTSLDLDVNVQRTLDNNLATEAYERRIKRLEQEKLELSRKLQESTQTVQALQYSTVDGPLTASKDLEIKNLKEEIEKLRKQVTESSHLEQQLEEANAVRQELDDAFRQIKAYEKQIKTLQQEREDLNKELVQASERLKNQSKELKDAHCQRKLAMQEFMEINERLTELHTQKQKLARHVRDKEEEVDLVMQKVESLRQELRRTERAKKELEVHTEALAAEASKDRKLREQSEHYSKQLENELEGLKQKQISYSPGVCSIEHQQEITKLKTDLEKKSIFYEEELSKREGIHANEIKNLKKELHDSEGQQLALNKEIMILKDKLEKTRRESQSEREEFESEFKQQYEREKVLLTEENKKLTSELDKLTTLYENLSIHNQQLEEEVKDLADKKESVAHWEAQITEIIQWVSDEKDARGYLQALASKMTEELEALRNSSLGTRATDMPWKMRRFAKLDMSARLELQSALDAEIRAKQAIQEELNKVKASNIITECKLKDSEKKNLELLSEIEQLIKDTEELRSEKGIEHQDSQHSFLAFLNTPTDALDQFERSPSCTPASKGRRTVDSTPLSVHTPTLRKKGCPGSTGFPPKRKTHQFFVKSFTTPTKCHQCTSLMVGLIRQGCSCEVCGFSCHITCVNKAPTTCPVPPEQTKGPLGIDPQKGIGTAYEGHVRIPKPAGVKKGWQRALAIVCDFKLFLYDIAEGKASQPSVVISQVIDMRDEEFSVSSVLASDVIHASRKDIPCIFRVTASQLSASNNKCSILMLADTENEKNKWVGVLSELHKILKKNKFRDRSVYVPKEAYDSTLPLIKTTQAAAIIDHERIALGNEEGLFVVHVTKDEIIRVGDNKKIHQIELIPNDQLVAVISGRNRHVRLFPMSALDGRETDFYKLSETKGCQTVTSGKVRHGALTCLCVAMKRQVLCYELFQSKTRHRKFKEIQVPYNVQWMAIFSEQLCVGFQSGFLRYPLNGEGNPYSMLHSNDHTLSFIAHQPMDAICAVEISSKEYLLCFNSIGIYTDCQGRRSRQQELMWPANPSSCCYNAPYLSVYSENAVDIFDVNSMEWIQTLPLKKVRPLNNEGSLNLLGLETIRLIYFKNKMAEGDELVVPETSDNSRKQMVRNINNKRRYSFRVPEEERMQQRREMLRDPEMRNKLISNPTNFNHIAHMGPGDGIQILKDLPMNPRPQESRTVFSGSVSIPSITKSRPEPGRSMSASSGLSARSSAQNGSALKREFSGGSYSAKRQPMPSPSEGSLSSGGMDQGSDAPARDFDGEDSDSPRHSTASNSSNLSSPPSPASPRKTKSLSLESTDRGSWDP
Procedure: as §1

[7] = target: T7, AMPK-α1 (Homo sapiens, UniProt Q13131)
T7 construct: purchased Ambit (KinomeScan screening)
Procedure: as §1

[8] = target: T8, CTK (Homo sapiens, UniProt P42679)
T8 construct: purchased Ambit (KinomeScan screening service)
Procedure: as §1

[9] = target: T9, ARK5 (Homo sapiens, UniProt O60285)
T9 construct: purchased Ambit (KinomeScan screening service)
Procedure: as §1

[10] = target: T10, ACVR2A (Homo sapiens, UniProt P27037)
T10 construct: purchased Ambit (KinomeScan screening)
Procedure: as §1

[11] = target: T11, RET(V804L) (Homo sapiens, UniProt P07949, V804L)
T11 construct: tag (kind not specified); purchased Ambit (KinomeScan screening service)
Procedure: as §1

[12] = target: T12, TEC (Homo sapiens, UniProt P42680)
T12 construct: unspecified tag (tagged kinase); purchased Ambit (KinomeScan screening)
Procedure: as §1

[13] = target: T13, ERK5 (Homo sapiens, UniProt Q13164)
T13 construct: unspecified tag ("tagged kinases"); purchased Ambit (KinomeScan screening service)
Procedure: as §1

[14] = target: T14, ROCK1 (Homo sapiens, UniProt Q13464)
T14 construct: unspecified tag (tagged kinase); purchased Ambit (KinomeScan screening)
Procedure: as §1

[15] = target: T15, EGFR(G719C) (Homo sapiens, UniProt P00533, G719C)
T15 construct: unspecified tag; purchased Ambit (KinomeScan screening service)
Procedure: as §1

[16] = target: T16, KIT(D816V) (Homo sapiens, UniProt P10721, D816V)
T16 construct: purchased Ambit (KinomeScan screening)
Procedure: as §1

[17] = target: T17, MARK1 (Homo sapiens, UniProt Q9P0L2)
T17 construct: Ambit (KinomeScan screening)
Procedure: as §1

[18] = target: T18, FLT4 (Homo sapiens, UniProt P35916)
T18 construct: unspecified tag ('tagged kinases'); purchased Ambit (KinomeScan screening service)
Procedure: as §1

[19] = target: T19, MAP3K3 (Homo sapiens, UniProt Q99759)
T19 construct: Ambit (KinomeScan screening)
Procedure: as §1

[20] = target: T20, MARK2 (Homo sapiens, UniProt Q7KZI7)
T20 construct: Ambit (KinomeScan screening)
Procedure: as §1

[21] = target: T21, FAK (Homo sapiens, UniProt Q05397)
T21 construct: unspecified tag ("tagged kinases"); purchased Ambit (KinomeScan screening service)
Procedure: as §1

[22] = target: T22, TIE2 (Homo sapiens, UniProt Q02763)
T22 construct: unspecified tag (tagged kinase); purchased Ambit (KinomeScan screening)
Procedure: as §1

[23] = target: T23, DYRK2 (Homo sapiens, UniProt Q92630)
T23 construct: unspecified tag; purchased Ambit (KinomeScan screening service)
Procedure: as §1

[24] = target: T24, BRK (Homo sapiens, UniProt Q13882)
T24 construct: unspecified tag ("tagged kinases"); purchased Ambit (KinomeScan screening)
Procedure: as §1

[25] = target: T25, RET (Homo sapiens, UniProt P07949)
T25 construct: tag (kind not specified); purchased Ambit (KinomeScan screening service)
Procedure: as §1

[26] = target: T26, PIM2 (Homo sapiens, UniProt Q9P1W9)
T26 construct: unspecified tag; purchased Ambit (KinomeScan screening panel)
Procedure: as §1

[27] = target: T27, DMPK2 (Homo sapiens, UniProt Q6DT37)
T27 construct: unspecified tag ("tagged kinases"); purchased Ambit (KinomeScan screening service)
Procedure: as §1

[28] = target: T28, PIK3CB (Homo sapiens, UniProt P42338)
T28 construct: unspecified tag; purchased Ambit (KinomeScan screening panel)
T28 sequence (P42338 whole entry): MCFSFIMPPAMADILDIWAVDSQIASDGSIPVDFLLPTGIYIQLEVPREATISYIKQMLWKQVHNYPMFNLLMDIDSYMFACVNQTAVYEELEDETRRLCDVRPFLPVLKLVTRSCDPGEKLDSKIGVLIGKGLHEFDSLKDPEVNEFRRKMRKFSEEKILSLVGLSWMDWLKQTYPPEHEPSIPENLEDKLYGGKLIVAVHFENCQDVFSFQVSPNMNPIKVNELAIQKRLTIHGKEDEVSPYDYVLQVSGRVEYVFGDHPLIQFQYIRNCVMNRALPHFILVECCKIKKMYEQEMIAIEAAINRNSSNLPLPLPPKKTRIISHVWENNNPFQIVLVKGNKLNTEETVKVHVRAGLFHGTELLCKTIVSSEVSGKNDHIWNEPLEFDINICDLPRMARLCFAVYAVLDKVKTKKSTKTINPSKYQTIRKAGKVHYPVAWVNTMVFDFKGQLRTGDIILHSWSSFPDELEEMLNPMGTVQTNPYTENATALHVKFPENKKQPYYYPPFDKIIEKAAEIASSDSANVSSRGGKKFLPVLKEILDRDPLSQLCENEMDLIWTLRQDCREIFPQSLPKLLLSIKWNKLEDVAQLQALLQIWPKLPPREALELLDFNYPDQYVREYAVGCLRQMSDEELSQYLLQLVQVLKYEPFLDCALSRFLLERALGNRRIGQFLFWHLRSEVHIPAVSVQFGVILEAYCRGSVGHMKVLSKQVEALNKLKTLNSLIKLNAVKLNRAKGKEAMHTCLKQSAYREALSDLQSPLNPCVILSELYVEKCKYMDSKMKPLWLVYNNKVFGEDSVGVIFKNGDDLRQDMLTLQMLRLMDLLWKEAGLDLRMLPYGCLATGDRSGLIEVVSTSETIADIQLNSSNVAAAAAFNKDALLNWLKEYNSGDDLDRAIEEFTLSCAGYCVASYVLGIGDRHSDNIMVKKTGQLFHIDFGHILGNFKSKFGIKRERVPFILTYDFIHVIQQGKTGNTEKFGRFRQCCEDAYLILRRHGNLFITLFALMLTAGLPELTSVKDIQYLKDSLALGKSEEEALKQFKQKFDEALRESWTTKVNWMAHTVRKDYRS
Procedure: as §1

[29] = target: T29, PDGFRA (Homo sapiens, UniProt P16234)
T29 construct: unspecified tag ('tagged kinases'); purchased Ambit (KinomeScan screening)
Procedure: as §1

[30] = target: T30, TLK1 (Homo sapiens, UniProt Q9UKI8)
T30 construct: unspecified tag (tagged kinase); purchased Ambit (KinomeScan screening)
Procedure: as §1

[31] = target: T31, MEK4 (Homo sapiens, UniProt P45985)
T31 construct: purchased Ambit (KinomeScan screening)
Procedure: as §1

[32] = target: T32, KIT(V559D, V654A) (Homo sapiens, UniProt P10721, V559D/V654A)
T32 construct: unspecified tag ('tagged kinases'); purchased Ambit (KinomeScan screening service)
Procedure: as §1

[33] = target: T33, ABL1(F317L) (Homo sapiens, UniProt P00519, F317L)
T33 construct: unspecified tag ("tagged kinases"); purchased Ambit (KinomeScan screening)
T33 sequence (P00519 whole entry F317L): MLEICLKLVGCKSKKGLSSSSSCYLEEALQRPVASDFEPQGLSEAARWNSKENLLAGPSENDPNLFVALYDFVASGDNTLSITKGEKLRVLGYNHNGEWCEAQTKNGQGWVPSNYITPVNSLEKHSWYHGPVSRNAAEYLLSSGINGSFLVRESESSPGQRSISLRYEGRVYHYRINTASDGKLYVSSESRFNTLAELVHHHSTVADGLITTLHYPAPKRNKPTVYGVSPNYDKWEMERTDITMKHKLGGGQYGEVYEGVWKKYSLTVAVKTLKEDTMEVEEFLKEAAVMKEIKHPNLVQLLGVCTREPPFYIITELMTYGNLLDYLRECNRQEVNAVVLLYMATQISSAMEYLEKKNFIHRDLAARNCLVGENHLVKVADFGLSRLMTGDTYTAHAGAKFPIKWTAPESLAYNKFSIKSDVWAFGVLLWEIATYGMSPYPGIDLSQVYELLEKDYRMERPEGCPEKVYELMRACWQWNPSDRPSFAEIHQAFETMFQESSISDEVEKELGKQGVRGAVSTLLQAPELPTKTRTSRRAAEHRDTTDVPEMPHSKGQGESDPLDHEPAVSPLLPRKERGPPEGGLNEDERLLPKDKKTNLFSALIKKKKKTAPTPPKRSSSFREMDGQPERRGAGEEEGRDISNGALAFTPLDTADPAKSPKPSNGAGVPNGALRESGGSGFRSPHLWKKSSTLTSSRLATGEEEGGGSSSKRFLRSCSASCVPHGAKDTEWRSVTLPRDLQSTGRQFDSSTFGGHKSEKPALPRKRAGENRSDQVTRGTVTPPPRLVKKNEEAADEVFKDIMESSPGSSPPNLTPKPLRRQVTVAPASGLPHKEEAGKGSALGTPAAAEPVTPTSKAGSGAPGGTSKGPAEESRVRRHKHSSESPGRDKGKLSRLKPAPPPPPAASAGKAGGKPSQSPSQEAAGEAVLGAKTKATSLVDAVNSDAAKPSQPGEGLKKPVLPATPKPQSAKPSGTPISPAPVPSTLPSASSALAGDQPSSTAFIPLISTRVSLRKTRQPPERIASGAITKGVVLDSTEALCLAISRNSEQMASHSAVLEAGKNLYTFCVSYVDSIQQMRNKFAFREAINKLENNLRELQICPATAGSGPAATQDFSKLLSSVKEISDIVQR
Procedure: as §1

[34] = target: T34, PAK7 (Homo sapiens, UniProt Q9P286)
T34 construct: unspecified tag ('tagged kinases'); purchased Ambit (KinomeScan screening)
Procedure: as §1

[35] = target: T35, CAMKK2 (Homo sapiens, UniProt Q96RR4)
T35 construct: purchased Ambit (KinomeScan screening)
Procedure: as §1

Cc1ccccc1-n1c(C(C)Nc2nc(N)nc3nc[nH]c23)nc2cccc(C)c2c1=O (stereo not drawn) [CAL-130]
Percent of Control Binding [1]: 100% | Percent of Control Binding [2]: 100% | Percent of Control Binding [3]: 16% | Percent of Control Binding [4]: 100% | Percent of Control Binding [5]: 100% | Percent of Control Binding [6]: 100% | Percent of Control Binding [7]: 100% | Percent of Control Binding [8]: 100% | Percent of Control Binding [9]: 100% | Percent of Control Binding [10]: 100% | Percent of Control Binding [11]: 100% | Percent of Control Binding [12]: 100% | Percent of Control Binding [13]: 100% | Percent of Control Binding [14]: 100% | Percent of Control Binding [15]: 100% | Percent of Control Binding [16]: 100% | Percent of Control Binding [17]: 100% | Percent of Control Binding [18]: 100% | Percent of Control Binding [19]: 100% | Percent of Control Binding [20]: 100% | Percent of Control Binding [21]: 100% | Percent of Control Binding [22]: 100% | Percent of Control Binding [23]: 100% | Percent of Control Binding [24]: 100% | Percent of Control Binding [25]: 100% | Percent of Control Binding [26]: 100% | Percent of Control Binding [27]: 100% | Percent of Control Binding ([28]; PI3KCB (Table 2)): 10% | Percent of Control Binding ([28]; PIK3CB (Table 1)): 3.2% | Percent of Control Binding [29]: 100% | Percent of Control Binding [30]: 100% | Percent of Control Binding [31]: 100% | Percent of Control Binding [32]: 100% | Percent of Control Binding [33]: 100% | Percent of Control Binding [34]: 100% | Percent of Control Binding [35]: 18%
